Consider three molecules from ChEMBL document CHEMBL2311464, “Potent inhibitors of CDK5 derived from roscovitine: synthesis, biological evaluation and molecular modelling” (Bioorg Med Chem Lett, 2013).

Bounds are passed on as bounds.

The inhibition is the percentage by which the read-out fell short of the control. Read a high inhibition as a response far below the control. As usually defined, the IC50 is the midpoint of a concentration-inhibition curve.

For test [1], the species on record is Sus scrofa. Description: Inhibition of porcine brain CK1 delta/epsilon using RRKHAAIGpSAYSITA as substrate at 0.1 uM measured after 30 mins by scintillation counting.
Test [2] can be described thus: Inhibition of porcine brain CK1 delta/epsilon using RRKHAAIGpSAYSITA as substrate measured after 30 mins by scintillation counting. Set-up: species or system Sus scrofa.
Test [3] has as its target Dual specificity tyrosine-phosphorylation-regulated kinase 1A (Homo sapiens, UniProt Q13627). Description: Inhibition of recombinant GST-fused human DYRK1A expressed in Escherichia coli using KKISGRLSPIMTEQ as substrate.
The target in test [4] is Cyclin-dependent kinase 5/CDK5 activator 1 (Homo sapiens, UniProt Q00535). Put plainly: Inhibition of recombinant human CDK5/p25 after 30 mins by scintillation counting. Type of test: protein-complex assay.
The target of test [5] is Glycogen synthase kinase-3 (Sus scrofa, UniProt B2LUN4+I6LNT8). Description: Inhibition of porcine GSK-3alpha/beta using YRRAAVPPSPSLSRHSSPHQSpEDEEE as substrate measured after 30 mins by scintillation counting.
Test [6] has as its target Cyclin-dependent kinase 2/cyclin A (Homo sapiens, UniProt P24941). Put plainly: Inhibition of recombinant human CDK2/cyclin A after 30 mins by scintillation counting. Type of test: protein-complex assay.
Test [7] has as its system SH-SY5Y. Put plainly: Ratio of roscovitine IC50 to compound IC50 for human SH-SY5Y cells after 48 hrs by MTS assay. The format is functional. In general terms: Tetrazolium dyes change colour on reduction, which living cells bring about.
In test [8] the test system is SH-SY5Y. Put plainly: Ratio of DRF53 IC50 to compound IC50 for human SH-SY5Y cells after 48 hrs by MTS assay. Type of test: functional.
The nature of test [9]: cells. As to conditions: Homo sapiens, SH-SY5Y, 48 h.
Description: Cytotoxicity against human SH-SY5Y cells after 48 hrs by MTS assay
Test [10] has as its target Cyclin-dependent kinase 1/cyclin B1 (Homo sapiens, UniProt P06493). Put plainly: Inhibition of CDK2/cyclin B (unknown origin) after 30 mins by scintillation counting.

Chain of Cyclin-dependent kinase 5/CDK5 activator 1 (Q00535 whole entry): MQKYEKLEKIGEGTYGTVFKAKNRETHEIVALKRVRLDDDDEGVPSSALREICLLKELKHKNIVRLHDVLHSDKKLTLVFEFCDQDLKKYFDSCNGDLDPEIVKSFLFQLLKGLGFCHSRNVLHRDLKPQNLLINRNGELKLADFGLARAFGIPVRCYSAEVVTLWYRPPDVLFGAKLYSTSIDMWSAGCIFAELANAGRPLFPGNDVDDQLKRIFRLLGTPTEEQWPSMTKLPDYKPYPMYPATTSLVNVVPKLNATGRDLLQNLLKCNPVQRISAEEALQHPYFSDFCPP
Chain of Cyclin-dependent kinase 5/CDK5 activator 1 (Q15078 whole entry, further chain): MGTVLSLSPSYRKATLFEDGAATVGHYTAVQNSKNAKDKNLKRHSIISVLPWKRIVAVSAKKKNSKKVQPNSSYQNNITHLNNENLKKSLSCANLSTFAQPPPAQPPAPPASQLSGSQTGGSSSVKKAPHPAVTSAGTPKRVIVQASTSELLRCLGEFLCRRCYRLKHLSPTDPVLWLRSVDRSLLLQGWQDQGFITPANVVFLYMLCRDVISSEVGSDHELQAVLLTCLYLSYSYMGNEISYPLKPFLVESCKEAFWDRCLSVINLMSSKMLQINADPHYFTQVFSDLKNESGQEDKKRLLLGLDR
Chain of Cyclin-dependent kinase 1/cyclin B1 (P06493 whole entry): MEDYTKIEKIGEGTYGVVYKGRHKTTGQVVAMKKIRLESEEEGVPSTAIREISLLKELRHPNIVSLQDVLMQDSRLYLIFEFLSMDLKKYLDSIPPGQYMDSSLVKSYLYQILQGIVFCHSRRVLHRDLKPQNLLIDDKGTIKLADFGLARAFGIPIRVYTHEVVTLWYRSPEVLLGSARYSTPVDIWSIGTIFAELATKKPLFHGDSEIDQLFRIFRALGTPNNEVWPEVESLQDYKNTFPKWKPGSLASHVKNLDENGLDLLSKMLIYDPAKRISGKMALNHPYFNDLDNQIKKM
Chain of Cyclin-dependent kinase 1/cyclin B1 (P14635 whole entry, further chain): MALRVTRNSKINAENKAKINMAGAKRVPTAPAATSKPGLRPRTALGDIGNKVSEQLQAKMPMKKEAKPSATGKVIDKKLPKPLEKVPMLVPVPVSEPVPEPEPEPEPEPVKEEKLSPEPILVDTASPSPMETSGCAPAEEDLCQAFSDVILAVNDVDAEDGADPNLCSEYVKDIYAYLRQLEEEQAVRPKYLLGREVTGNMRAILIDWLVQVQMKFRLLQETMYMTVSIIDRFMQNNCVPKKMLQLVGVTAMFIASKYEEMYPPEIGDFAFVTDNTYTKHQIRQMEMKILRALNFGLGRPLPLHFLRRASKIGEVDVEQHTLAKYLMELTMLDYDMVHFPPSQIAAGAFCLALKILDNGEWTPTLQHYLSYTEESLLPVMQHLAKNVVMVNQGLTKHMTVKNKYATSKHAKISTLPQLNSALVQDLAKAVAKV

Consider `CC(C)[C@H](CO)Nc1nc(Nc2cccc(Cl)c2)c2ncn(C(C)C)c2n1`, for which the inhibition in [1] was 100%.
On to `CC(C)n1cnc2c(Nc3ncccn3)nc(Cl)nc21`, for which the IC50 in [2] was 8000 nM; in test [3], > 10000 nM; in test [4] it was > 10000 nM; in test [5], > 10000 nM; in test [6], > 10000 nM; in [9], 1800 nM. The “Ratio IC50” value in test [7] and in [8] was 5 in each case.
For `CC[C@H](CO)Nc1nc(Nc2cccc(-c3ccccn3)c2)c2ncn(C(C)C)c2n1`, the IC50 in [2] came out at 14 nM; in test [4], 80 nM; in test [10] it was 220 nM.
